Test results published in patent US8071780B2, “2-Hydroxymethyl-3,4,5-trihydroxy-1-benzilpiperidine derivatives as inhibitors of glucosylceramide” (Actelion Pharmaceuticals Ltd., priority 2003, dated 2011).

What was measured:
[1] = target: T1, human recombinant GCS expressed in insect cells (Homo sapiens, UniProt Q16739); assay: Inhibition of GCS (glucosylceramide synthase); type: biochemical
T1 construct: made in house; host or cells: insect cells
T1 sequence (Q16739 1-394): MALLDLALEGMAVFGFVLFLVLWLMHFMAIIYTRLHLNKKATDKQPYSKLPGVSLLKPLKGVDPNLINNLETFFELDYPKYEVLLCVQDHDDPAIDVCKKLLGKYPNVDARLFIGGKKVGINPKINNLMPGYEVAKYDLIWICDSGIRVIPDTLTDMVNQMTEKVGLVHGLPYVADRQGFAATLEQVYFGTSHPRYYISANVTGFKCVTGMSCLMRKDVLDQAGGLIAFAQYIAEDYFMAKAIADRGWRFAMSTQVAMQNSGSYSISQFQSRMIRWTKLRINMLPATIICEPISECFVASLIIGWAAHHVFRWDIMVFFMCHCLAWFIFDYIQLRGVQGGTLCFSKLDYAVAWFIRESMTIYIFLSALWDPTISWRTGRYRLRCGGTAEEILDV
Protocol: The assay for inhibition of GCS was performed essentially as described in Platt et al., J. Biol. Chem., (1994), 269, 27108, the enzyme source being human recombinant GCS expressed in insect cells.

[2] = target: T2, non-lysosomal-β-glucocerebrosidase (Homo sapiens, UniProt Q9HCG7); assay: Inhibition of non-lysosomal-β-glucocerebrosidase; type: biochemical; conditions: whole cell extracts of MCF7 as enzyme source; 5 mM 4-MU β-glucoside; pH 5.8
T2 construct: whole cell extracts of MCF7 (a human breast carcinoma cell line) was used as the source of the enzyme; endogenous in cells; host or cells: MCF7 whole cell extract
T2 sequence (Q9HCG7 1-927): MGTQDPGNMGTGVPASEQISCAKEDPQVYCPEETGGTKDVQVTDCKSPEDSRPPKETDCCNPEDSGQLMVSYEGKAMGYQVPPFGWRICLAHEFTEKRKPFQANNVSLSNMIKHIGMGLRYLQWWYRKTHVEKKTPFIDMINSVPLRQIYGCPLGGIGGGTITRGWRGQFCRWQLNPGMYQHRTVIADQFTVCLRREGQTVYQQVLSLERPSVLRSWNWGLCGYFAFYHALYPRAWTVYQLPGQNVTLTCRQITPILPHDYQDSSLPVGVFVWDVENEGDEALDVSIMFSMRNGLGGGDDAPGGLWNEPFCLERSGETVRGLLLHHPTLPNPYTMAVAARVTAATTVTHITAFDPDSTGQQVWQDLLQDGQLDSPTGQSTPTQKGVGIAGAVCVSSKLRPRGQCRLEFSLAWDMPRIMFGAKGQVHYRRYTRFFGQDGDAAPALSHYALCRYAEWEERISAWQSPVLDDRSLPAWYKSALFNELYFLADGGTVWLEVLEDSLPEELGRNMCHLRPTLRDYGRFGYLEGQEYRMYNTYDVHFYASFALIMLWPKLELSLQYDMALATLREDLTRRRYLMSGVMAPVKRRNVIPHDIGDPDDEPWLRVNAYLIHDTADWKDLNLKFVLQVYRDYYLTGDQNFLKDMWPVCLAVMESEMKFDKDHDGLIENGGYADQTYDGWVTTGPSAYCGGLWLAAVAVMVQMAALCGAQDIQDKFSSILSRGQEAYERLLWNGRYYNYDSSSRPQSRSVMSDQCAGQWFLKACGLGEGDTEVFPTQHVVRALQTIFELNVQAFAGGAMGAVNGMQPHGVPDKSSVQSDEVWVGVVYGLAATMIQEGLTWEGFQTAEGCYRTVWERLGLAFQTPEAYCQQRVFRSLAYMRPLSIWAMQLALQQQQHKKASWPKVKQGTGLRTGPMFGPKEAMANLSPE
Protocol: Inhibition of non-lysosomal-β-glucocerebrosidase
The assay for inhibition of non-lysosomal-β-glucocerebrosidase was essentially carried out as described in Overkleeft, H. S. et al., J. Biol. Chem. (1998) 273, 26522-26527 with the following differences: whole cell extracts of MCF7 (a human breast carcinoma cell line) was used as the source of the enzyme instead of splenic membrane suspensions; 5 mM instead of 3 mM, 4-MU β-glucoside was used as substrate and 0.2M citrate/phosphate (pH 5.8) was used instead of McIlvaine buffer.

[3] = target: T3, human GCS (Homo sapiens, UniProt Q16739); assay: Cell-based IC50 for GCS inhibition by measuring glucosylceramide (GlcCer) depletion; conditions: MCF-7 cells cultured 5-7 days with compound; GlcCer depletion by HPTLC; read-out: Inhibition of GCS Cellular-based (IC50 μM)
T3 construct: endogenous in cells; host or cells: MCF-7
T3 sequence (Q16739 1-394): T1 sequence (Q16739 1-394)
Protocol: Estimating the Cell-Based IC50 for GCS Inhibition by Measuring Glucosylceramide (GlcCer) Depletion
Human mammary epithelial cells (MCF-7) were cultured for 5-7 days, with varying concentrations of a compound of the invention to be tested (0; 0.01; 0.05; 0.25; 1.25 and 6.25 μM). The cells were harvested and the total cellular lipids extracted. Neutral glycolipids were separated by partitioning in a DIPE/1-butanol/saline suspension, according to methods well known to those skilled in the art. The neutral glycolipid extracts were then separated by High-Performance Thin Layer Chromatography (HPTLC), using non-polar TLC conditions (chloroform:methanol: 0.2% CaCl2; 65:35:8), according to methods well known to those skilled in the art. GlcCer bands were visualized and the TLC plates were scanned immediately. Scion Image software was then used to quantify GlcCer in the samples relative to a GlcCer standard. This enabled a cell-based IC50 to be calculated for compounds of the invention for GCS inhibition.

| SMILES | IC50 [1] | IC50 [2] | IC50 [3] |
| --- | --- | --- | --- |
| CCCCCOc1ccc(CN2C[C@H](O)[C@@H](O)[C@H](O)[C@@H]2CO)cc1 [Example 1, 3,4,5-Piperidinetriol, 2-(hydroxymethyl)-1-[(4-pentyloxyphenyl)methyl]-, (2S,3R,4R,5S)] | 0.15 µM | 0.001 µM | ~0.015 µM |
| CCCCOc1ccc(CN2C[C@H](O)[C@@H](O)[C@H](O)[C@@H]2CO)cc1 [Example 2, 3,4,5-Piperidinetriol, 1-[(4-butoxyphenyl)methyl]-2-(hydroxymethyl)-, (2S,3R,4R,5S)] | 0.42 µM | 0.004 µM |  |
